# From publication PMC6419574 (Bioorganic & Medicinal Chemistry Letters, 2019)
# How the values were obtained:
# [1] = biological target: T1, fascin (Homo sapiens, UniProt Q16658); format: biochemical
# [2] = biological target: T1, fascin; settings: for Ligand efficiency: from SPR Kd
# [3] = biological target: T1, fascin; test: Isothermal titration calorimetry; format: binding; settings: 150 µM compound in syringe, 15 µM fascin in cell, Fig. 3B
# [4] = biological target: T1, fascin; test: biochemical; settings: SPR Kd
SMILES,inhibition of fascin in the bundling assay (in words) [1],Ligand efficiency [2],further results
"CC(=O)N(C)c1ccc(Cl)cc1Cl [Compound 1, N-(2,4-dichlorophenyl)-N-methylacetamide]","Unlike compound 1, both 2 and 3 inhibit fascin",0.43,
"Cn1cc(NC(=O)c2cn(Cc3ccccc3)c(=O)c3ccccc23)cn1 [Compound 3, 2-benzyl-N-(1-methylpyrazol-4-yl)-1-oxo-isoquinoline-4-carboxamide]",inhibit fascin,,
"Cn1cc(NC(=O)c2cn(Cc3ccc(Cl)cc3)c(=O)c3ccccc23)cn1 [Compound 5, 2-(4-chlorobenzyl)-N-(1-methyl-1H-pyrazol-4-yl)-1-oxo-1,2-dihydroisoquinoline-4-carboxamide]",,,increase in binding affinity compared to 3 ([2]; SPR Kd ratio vs compound 3): ≈ 14 fold

# The next lines start with results.
inhibition of fascin in the bundling assay (in words) [1],Ligand efficiency [2],SMILES,further results
inhibit fascin,,"O=c1c2cnn(C3CCS(=O)(=O)C3)c2ncn1Cc1ccc(Cl)c(Cl)c1 (stereo not drawn) [Compound 2, 5-(3,4-dichlorobenzyl)-1-(1,1-dioxidotetrahydrothiophen-3-yl)-1,5-dihydro-4H-pyrazolo[3,4-d]pyrimidin-4-one, reference compound]",improvement of fascin affinity over truncated compound 25 [2]: 23 fold
,0.29,"O=C(Nc1ccncc1)c1cn(Cc2ccc(Cl)c(Cl)c2)c(=O)c2cnn(C3CCNCC3)c12 [Compound 28, 5-(3,4-dichlorobenzyl)-4-oxo-1-(piperidin-4-yl)-N-(pyridin-4-yl)-4,5-dihydro-1H-pyrazolo[4,3-c]pyridine-7-carboxamide]",ITC stoichiometry N [3]: 1.05 ± 0.01; Kd [4]: 85 ± 0.02 nM
